This is an account of results in ChEMBL document CHEMBL1201862, “PubChem BioAssay data set” (2004).

SMILES strings stand for the structures.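 Tested at 5 concentrations; 48 h exposure; 96-well plates; endpoints linearly interpolated, else capped at highest concentration. GI50: concentration for 50% inhibition of growth.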 Calls of active or inactive are those of the source. No stated cut-off is given here; in the data, active = GI50 up to about 1.1 µM and inactive = higher. Where a SMILES comes first, the peptide text is derived from it. The star is where a group is joined. Boc = CC(C)(C)OC(=O)*; nBu = CCCC*

Test systems include A498; MOLT-4; K562; LXFL 529; NCI-H522; SNB-78; U-251; Malme-3M; NCI-H226; A549; ACHN; OVCAR-8; SK-MEL-2; SK-MEL-28; LOX IMVI; T47D; Hs-578T; MCF7; DU-145.
Holding throughout (test): NCI anticancer screen, dose series, 48 h

`COc1ccc(-c2ccc(CC(=O)O)cc2)cc1OC`: the GI50 in the assay on A498, in the assay with MOLT-4, with K562, in the assay on LXFL 529, in the assay with NCI-H522 and with SNB-78 was > 100 µM (inactive) each time. For the same compound, the GI50 with U-251, in the assay on Malme-3M, in the assay on NCI-H226, in the assay with A549, in the assay with ACHN and with OVCAR-8 was > 100 µM (inactive) each time. Further, the GI50 in the assay with SK-MEL-2 and in the assay with SK-MEL-28 was > 100 µM (inactive) throughout.
As to `CCC1CN2CCC3(c4ccccc4)CC(C(=O)OC)=CC1C23` (stereo unspecified), the GI50 is 18.6 µM (inactive) in the assay with A498; 49.2 µM (inactive) with MOLT-4; 9.46 µM (inactive) in the assay on K562; 15.4 µM (inactive) in the assay on LXFL 529; 14.1 µM (inactive) in the assay with NCI-H522; 19.3 µM (inactive) in the assay with SNB-78. In addition, the GI50 is 16.3 µM (inactive) in the assay with U-251; 15.9 µM (inactive) with Malme-3M; 17 µM (inactive) with NCI-H226; 17.3 µM (inactive) in the assay with A549; 16.6 µM (inactive) with ACHN; 17.9 µM (inactive) in the assay on OVCAR-8. For the same compound, the GI50 is 14.6 µM (inactive) in the assay on LOX IMVI and 17.7 µM (inactive) with SK-MEL-28.
On to `COc1cc2c(cc1OC)C(=O)Cc1ccc3c(c1CNCC2)OCO3`, for which the GI50 in the assay with A498, with MOLT-4, with K562, in the assay with LXFL 529, with NCI-H522 and with SNB-78 was > 100 µM (inactive) throughout. In addition, the GI50 in the assay with U-251, with Malme-3M, with A549, with ACHN, with OVCAR-8 and in the assay on SK-MEL-2 was > 100 µM (inactive) in each case. Further, the GI50 in the assay on SK-MEL-28 was > 100 µM (inactive).
As for `COc1ccc2c(c1)[n+]([O-])c(/C(C)=N/NC(N)=S)c(C)[n+]2[O-]`, the GI50 in the assay on A498 is > 100 µM (inactive); in the assay on T47D, 49.2 µM (inactive); with MOLT-4, 17.8 µM (inactive); in the assay on K562, 41.5 µM (inactive); with LXFL 529 it was 51.6 µM (inactive); in the assay with NCI-H522, 31 µM (inactive). For the same compound, the GI50 in the assay on SNB-78 was > 100 µM (inactive); in the assay with Hs-578T it was > 100 µM (inactive); with U-251 it was 44.4 µM (inactive); in the assay on Malme-3M it was 75.7 µM (inactive); in the assay on NCI-H226, > 61.7 µM (inactive); in the assay on MCF7 it was 41.4 µM (inactive). The GI50 in the assay on A549 is 53.7 µM (inactive); in the assay with ACHN, 38.5 µM (inactive); in the assay with OVCAR-8, 46.3 µM (inactive); in the assay on SK-MEL-2, > 96.4 µM (inactive); in the assay on LOX IMVI, 39.9 µM (inactive); with DU-145 it was 44.2 µM (inactive). Besides, the GI50 in the assay with SK-MEL-28 is > 56.2 µM (inactive).
Regarding `O=C1c2ccccc2C(=O)C1(O)c1c[nH]c2ccccc12`, the GI50 in the assay on MOLT-4, in the assay with K562, in the assay with LXFL 529, in the assay with NCI-H522, in the assay on SNB-78 and with U-251 was > 100 µM (inactive) each time. The GI50 in the assay with Malme-3M, with A549, with OVCAR-8, with SK-MEL-2, with LOX IMVI and in the assay with SK-MEL-28 was > 100 µM (inactive) each time.
For `COC(=O)[C@@H](Nc1ccccc1)[C@@]1(C(=O)OC)SC12c1ccccc1-c1ccccc12`, the GI50 in the assay on A498 is > 100 µM (inactive); in the assay on T47D it was 25.5 µM (inactive); in the assay with MOLT-4, 24.4 µM (inactive); in the assay with K562, 56.4 µM (inactive); in the assay on NCI-H522, 22 µM (inactive); in the assay on Hs-578T, > 100 µM (inactive). The GI50 in the assay with U-251 was 44.1 µM (inactive); in the assay with Malme-3M, 49.7 µM (inactive); with NCI-H226 it was > 100 µM (inactive); in the assay on MCF7, 34.2 µM (inactive); in the assay on A549 it was 44.8 µM (inactive); in the assay on ACHN, > 100 µM (inactive). In addition, the GI50 in the assay with OVCAR-8 was 63 µM (inactive); in the assay on SK-MEL-2, 74.6 µM (inactive); in the assay with LOX IMVI, 32.7 µM (inactive); in the assay with DU-145 it was > 100 µM (inactive); with SK-MEL-28 it was > 100 µM (inactive).
As to `CCCCOc1ccc(CC(NC(=O)OC(C)(C)C)C(=O)NC(C)C(=O)NC(Cc2ccccc2)C(=O)NCC(N)=O)cc1` (stereo unspecified) (Boc-Y(nBu)AFG-NH2; configuration not given here), the GI50 with A498 was > 100 µM (inactive); in the assay on T47D, > 100 µM (inactive); with MOLT-4, 23 µM (inactive); in the assay on K562, > 100 µM (inactive); in the assay on NCI-H522, 66.5 µM (inactive); with Hs-578T, > 100 µM (inactive). In addition, the GI50 in the assay on U-251 is 59.4 µM (inactive); in the assay with Malme-3M, > 100 µM (inactive); in the assay on NCI-H226, > 100 µM (inactive); in the assay with MCF7 it was 41.1 µM (inactive); in the assay with A549, > 100 µM (inactive); in the assay with ACHN, > 100 µM (inactive). For the same compound, the GI50 in the assay with OVCAR-8 is > 100 µM (inactive); in the assay with SK-MEL-2, 18.7 µM (inactive); in the assay on LOX IMVI, 65 µM (inactive); with DU-145, > 100 µM (inactive); in the assay on SK-MEL-28, 91 µM (inactive).
With `CN1CCC[N+](C)=C1c1ccccc1`, the GI50 was 37.2 µM (inactive) in the assay with A498; > 100 µM (inactive) in the assay with T47D; > 100 µM (inactive) with MOLT-4; > 100 µM (inactive) in the assay on K562; > 100 µM (inactive) in the assay with NCI-H522; > 100 µM (inactive) in the assay on Hs-578T. Also, the GI50 in the assay with U-251, with Malme-3M, with NCI-H226, with MCF7, with A549 and in the assay on ACHN was > 100 µM (inactive) throughout. The GI50 with OVCAR-8, with SK-MEL-2, in the assay with LOX IMVI, in the assay with DU-145 and in the assay with SK-MEL-28 was > 100 µM (inactive) each time.
As to `CC(=O)Oc1ccccc1/C=C/C(=O)/C=C/c1ccccc1OC(C)=O`, the GI50 is 2.08 µM (inactive) with A498; 3.49 µM (inactive) in the assay on T47D; 1.36 µM (inactive) in the assay with MOLT-4; 0.429 µM (active) in the assay on K562; 1.96 µM (inactive) with NCI-H522; 3.69 µM (inactive) in the assay with Hs-578T. In addition, the GI50 was 1.51 µM (inactive) in the assay on U-251; 2.81 µM (inactive) in the assay on Malme-3M; 1.81 µM (inactive) with NCI-H226; 0.959 µM (active) in the assay on MCF7; 2.26 µM (inactive) with A549; 1.8 µM (inactive) in the assay on ACHN. The GI50 is 1.94 µM (inactive) in the assay with OVCAR-8; 3.79 µM (inactive) with SK-MEL-2; 0.64 µM (active) with LOX IMVI; 3.08 µM (inactive) in the assay on DU-145; 1.97 µM (inactive) with SK-MEL-28.
For `NC(=O)Cc1nc2c(N)ncnc2n1C1OC(CO)C(O)C1O` (stereo unspecified), the GI50 with A498, in the assay with T47D, in the assay with MOLT-4, in the assay with K562, in the assay with NCI-H522 and in the assay with Hs-578T was > 100 µM (inactive) each time. Also, the GI50 in the assay on U-251, in the assay with Malme-3M, in the assay with NCI-H226, with MCF7, in the assay on A549 and with ACHN was > 100 µM (inactive) each time. Also, the GI50 with OVCAR-8, with SK-MEL-2, in the assay with LOX IMVI, with DU-145 and in the assay on SK-MEL-28 was > 100 µM (inactive) each time.
Take `O=c1[nH]nc(Cc2ccccc2)n1/N=C/c1ccc([N+](=O)[O-])cc1`: the GI50 with A498, with T47D, in the assay with MOLT-4, in the assay with K562, in the assay on NCI-H522 and in the assay with Hs-578T was > 100 µM (inactive) each time. Besides, the GI50 in the assay on U-251, in the assay with Malme-3M, in the assay with NCI-H226, in the assay on MCF7, in the assay with A549 and with ACHN was > 100 µM (inactive) each time. Besides, the GI50 in the assay with OVCAR-8 was > 100 µM (inactive); in the assay on SK-MEL-2, 49 µM (inactive); in the assay on LOX IMVI it was > 100 µM (inactive); with DU-145, > 100 µM (inactive); with SK-MEL-28, > 100 µM (inactive).
In the case of `CC1CCCN1CCCOC(=O)c1ccc(OC2C=CCCC2)cc1` (stereo unspecified), the GI50 with A498 was 67.1 µM (inactive); in the assay on T47D it was 13.5 µM (inactive); in the assay with MOLT-4, 25.1 µM (inactive); in the assay on K562 it was 18.9 µM (inactive); in the assay with NCI-H522, 20.9 µM (inactive); with Hs-578T, 32.4 µM (inactive). Moreover, the GI50 in the assay with U-251 is 37.6 µM (inactive); in the assay with Malme-3M, 18.9 µM (inactive); in the assay with NCI-H226 it was 29.4 µM (inactive); in the assay on MCF7, 25.1 µM (inactive); with A549, 42.1 µM (inactive); in the assay with ACHN, 33.5 µM (inactive). Also, the GI50 in the assay on OVCAR-8 is 47.6 µM (inactive); in the assay on SK-MEL-2 it was > 100 µM (inactive); with LOX IMVI it was 19.7 µM (inactive); in the assay with DU-145, > 100 µM (inactive); in the assay with SK-MEL-28, 54.7 µM (inactive).
